Patent publication US10392368B2, “Pyrazolo and triazolo bicyclic compounds as JAK kinase inhibitors” (THERAVANCE BIOPHARMA R&D IP, LLC, priority 2017, dated 2019)
Like-named read-outs stand apart in the source and are kept apart here.

Tests used:
[1] = molecular target: T1, JAK1 (Homo sapiens, UniProt P23458); test: Biochemical JAK1 kinase assay (LanthaScreen); conditions: for Ki: read-out: JAK 1 (pKi) (converted)
T1 construct: GST; purchased Life Technologies
Method: (§1) A panel of four LanthaScreen JAK biochemical assays (JAK1, 2, 3 and Tyk2) were carried in a common kinase reaction buffer (50 mM HEPES, pH 7.5, 0.01% Brij-35, 10 mM MgCl2, and 1 mM EGTA). Recombinant GST-tagged JAK enzymes and a GFP-tagged STAT1 peptide substrate were obtained from Life Technologies.
(§2) Serially or discretely diluted compounds were pre-incubated with each of the four JAK enzymes and the substrate in white 384-well microplates (Corning) at ambient temperature for 1 h. ATP was subsequently added to initiate the kinase reactions in 10 μL total volume, with 1% DMSO. […] Kinase reactions were allowed to proceed for 1 hour at ambient temperature before a 10 μL preparation of EDTA (10 mM final concentration) and Tb-anti-pSTAT1 (pTyr701) antibody (Life Technologies, 2 nM final concentration) in TR-FRET dilution buffer (Life Technologies) was added. The plates were allowed to incubate at ambient temperature for 1 h before being read on the EnVision reader (Perkin Elmer). Emission ratio signals (520 nm/495 nm) were recorded and utilized to calculate the percent inhibition values based on DMSO and background controls.
(§3) For dose-response analysis, percent inhibition data were plotted vs. compound concentrations, and IC50 values were determined from a 4-parameter robust fit model with the Prism software (GraphPad Software). Results were expressed as pIC50 (negative logarithm of IC50) and subsequently converted to pKi (negative logarithm of dissociation constant, Ki) using the Cheng-Prusoff equation.

[2] = tested on: IL-2 stimulated pSTAT5 in Tall-1 T cells; test: Cellular JAK3 potency assay: inhibition of IL-2 stimulated pSTAT5 in Tall-1 T cells; assay type: cell-based, human; conditions: for IC50: Homo sapiens, read-out: Tall-1 (pIC50) (converted)
Method: The potency of test compounds for inhibition of interleukin-2 (IL-2) stimulated STAT5 phosphorylation was measured in the Tall-1 human T cell line (DSMZ) using AlphaLisa. Because IL-2 signals through JAK3, this assay provides a measure of JAK3 cellular potency.
Compounds were serially diluted in DMSO and dispensed acoustically to empty wells. Assay media (phenol red-free DMEM (Life Technologies) supplemented with 10% FBS (ATCC)) was dispensed (4 μL/well) and plates shaken at 900 rpm for 10 mins. Cells were seeded at 45,000 cells/well in assay media (4 μL/well), and incubated at 37° C., 5% CO2 for 1 hour, followed by the addition of IL-2 (R&D Systems; final concentration 300 ng/ml) in pre-warmed assay media (4 μL) for 30 minutes. After cytokine stimulation, cells were lysed with 6 ul of 3× AlphaLisa Lysis Buffer (PerkinElmer) containing 1× PhosStop and Complete tablets (Roche). The lysate was shaken at 900 rpm for 10 minutes at room temperature (RT). Phosphorylated STAT5 was measured via the pSTAT5 AlphaLisa kit (PerkinElmer). Freshly prepared acceptor bead mixture was dispensed onto lysate (5 μL) under green filtered <100 lux light. Plates were shaken at 900 rpm for 2 mins, briefly spun down, and incubated for 2 hrs at RT in the dark. Donor beads were dispensed (5 μL) under green filtered <100 lux light. Plates were shaken at 900 rpm for 2 minutes, briefly spun down, and incubated overnight at RT in the dark.
To determine the inhibitory potency of test compounds in response to IL-2, the average emission intensity of beads bound to pSTAT5 was measured in a human T cell line. IC50 values were determined from analysis of the inhibition curves of signal intensity versus compound concentration. Data are expressed as pIC50 (negative decadic logarithm IC50) values (mean±standard deviation).

[3] = molecular target: T2, JAK3 (Homo sapiens, UniProt P52333); test: Biochemical JAK3 kinase assay (LanthaScreen); parameters: GST; purchased Life Technologies; conditions: for Ki: read-out: JAK 3 (pKi) (converted)
T2 sequence (P52333 1-1124): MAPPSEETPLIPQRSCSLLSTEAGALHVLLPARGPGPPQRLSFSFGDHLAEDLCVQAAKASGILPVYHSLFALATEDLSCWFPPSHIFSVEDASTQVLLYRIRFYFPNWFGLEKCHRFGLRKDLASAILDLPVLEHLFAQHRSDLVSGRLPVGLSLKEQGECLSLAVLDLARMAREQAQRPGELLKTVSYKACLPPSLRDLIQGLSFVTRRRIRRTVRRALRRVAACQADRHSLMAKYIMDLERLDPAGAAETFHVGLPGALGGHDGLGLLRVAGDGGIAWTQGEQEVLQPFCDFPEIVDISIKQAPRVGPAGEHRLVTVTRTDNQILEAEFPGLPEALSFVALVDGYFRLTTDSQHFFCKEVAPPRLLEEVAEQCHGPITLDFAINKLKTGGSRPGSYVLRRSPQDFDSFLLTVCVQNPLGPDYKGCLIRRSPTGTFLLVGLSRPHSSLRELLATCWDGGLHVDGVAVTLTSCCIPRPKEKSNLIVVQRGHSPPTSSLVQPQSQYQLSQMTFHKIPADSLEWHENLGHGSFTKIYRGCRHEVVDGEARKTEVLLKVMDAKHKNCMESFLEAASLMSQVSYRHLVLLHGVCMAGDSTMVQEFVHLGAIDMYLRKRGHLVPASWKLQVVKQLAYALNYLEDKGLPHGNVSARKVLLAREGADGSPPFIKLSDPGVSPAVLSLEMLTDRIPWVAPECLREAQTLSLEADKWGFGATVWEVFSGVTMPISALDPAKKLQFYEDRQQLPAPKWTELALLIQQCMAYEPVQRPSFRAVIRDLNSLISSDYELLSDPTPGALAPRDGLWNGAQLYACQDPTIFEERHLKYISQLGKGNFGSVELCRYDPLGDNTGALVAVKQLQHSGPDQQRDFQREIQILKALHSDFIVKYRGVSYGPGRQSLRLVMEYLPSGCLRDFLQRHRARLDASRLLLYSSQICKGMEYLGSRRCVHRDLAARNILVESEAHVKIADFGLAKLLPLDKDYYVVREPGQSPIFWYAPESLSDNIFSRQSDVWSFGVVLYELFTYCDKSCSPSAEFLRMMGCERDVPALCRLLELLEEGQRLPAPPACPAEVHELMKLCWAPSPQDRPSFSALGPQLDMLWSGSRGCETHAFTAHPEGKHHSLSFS
Method: as §1, §2, §3

[4] = IL-2 stimulated pSTAT5, Tall-1 T cells
[5] = selectivity JAK3 over JAK1, difference of pKi
[6] = IL-2 stimulated pSTAT5 in Tall-1 T cells
[7] = selectivity: difference of pKi JAK3 and pKi JAK1
[8] = TALL-1, IL-2 stimulated pSTAT5, Tall-1 T cells
[9] = TALL-1, IL-2 stimulated pSTAT5 in Tall-1 T cells

T1 sequence (P23458 whole entry): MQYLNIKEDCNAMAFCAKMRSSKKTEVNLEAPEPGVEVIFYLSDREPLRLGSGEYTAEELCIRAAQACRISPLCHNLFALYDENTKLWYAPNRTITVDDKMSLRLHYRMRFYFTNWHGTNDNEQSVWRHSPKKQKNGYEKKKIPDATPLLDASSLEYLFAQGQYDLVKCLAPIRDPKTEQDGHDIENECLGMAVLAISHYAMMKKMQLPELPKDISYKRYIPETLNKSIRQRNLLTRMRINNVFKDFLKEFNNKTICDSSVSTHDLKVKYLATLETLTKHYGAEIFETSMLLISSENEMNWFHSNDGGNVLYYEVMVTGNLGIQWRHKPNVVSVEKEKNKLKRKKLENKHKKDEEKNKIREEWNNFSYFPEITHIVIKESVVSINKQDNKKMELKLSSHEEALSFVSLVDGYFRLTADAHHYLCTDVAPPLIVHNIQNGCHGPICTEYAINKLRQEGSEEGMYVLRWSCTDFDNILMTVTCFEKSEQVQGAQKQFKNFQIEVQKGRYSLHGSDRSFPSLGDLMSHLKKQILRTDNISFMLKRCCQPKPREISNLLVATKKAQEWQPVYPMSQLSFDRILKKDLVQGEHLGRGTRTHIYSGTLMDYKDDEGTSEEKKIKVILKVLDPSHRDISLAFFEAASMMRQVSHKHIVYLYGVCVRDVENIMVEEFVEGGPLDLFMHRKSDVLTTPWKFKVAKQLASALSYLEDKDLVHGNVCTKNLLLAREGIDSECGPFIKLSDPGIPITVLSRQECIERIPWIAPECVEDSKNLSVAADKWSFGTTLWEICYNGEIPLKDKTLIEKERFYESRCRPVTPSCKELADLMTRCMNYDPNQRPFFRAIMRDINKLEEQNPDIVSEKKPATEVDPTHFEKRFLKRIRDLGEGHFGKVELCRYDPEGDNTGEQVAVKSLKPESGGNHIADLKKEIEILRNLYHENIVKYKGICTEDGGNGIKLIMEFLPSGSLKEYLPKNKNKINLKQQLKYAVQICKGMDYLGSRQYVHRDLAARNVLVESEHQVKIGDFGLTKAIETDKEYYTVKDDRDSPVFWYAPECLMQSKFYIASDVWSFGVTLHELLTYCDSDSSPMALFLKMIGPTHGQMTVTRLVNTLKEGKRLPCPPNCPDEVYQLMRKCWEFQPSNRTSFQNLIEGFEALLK

| SMILES | JAK 1 (pKi) [1] | Tall-1 (pIC50) [2, 4] | JAK 3 (pKi) [3] | JAK3 (pKi)-JAK1 (pKi) [3, 5] | Tall-1 (pIC50) [2, 6] | JAK3 (pKi)-JAK1 (pKi) [3, 7] | Ki [1] | IC50 [2, 8] | Ki [3] | IC50 [2, 9] |
| --- | --- | --- | --- | --- | --- | --- | --- | --- | --- | --- |
| CN(C)CC=CC(=O)N1CCCC(Oc2nc(-c3ccc(O)c(F)c3)cc3[nH]ncc23)C1 (centres unmarked) [Compound 8-9] | E (a pKi value of 7 or below (Ki of 100 nM or above)) | C (a pIC50 value between 6 and 6.7 (IC50 between 1 μM and 200 nM)) | B (a pKi value between 9 and 10 (Ki between 1 nM and 0.1 nM)) | B (a value of 2.3 to 3) |  |  |  |  |  |  |
| C=CC(=O)N1CC(C)(COc2cc(-c3ccc(O)c(Cl)c3)cc3[nH]ncc23)C1 [Compound 3-10] | E (a pKi value of 7 or below (Ki of 100 nM or above)) |  | B (a pKi value between 9 and 10 (Ki between 1 nM and 0.1 nM)) |  | A (a pIC50 value≥7.5 (IC50≤32 nM)) | A (a value of 3 or above) |  |  |  |  |
| C=CC(=O)N1CCC(Oc2cc(-c3ccc(O)cc3)cc3[nH]nnc23)C1 (centres unmarked) [Compound 17-2] | E (a pKi value of 7 or below (Ki of 100 nM or above)) | C (a pIC50 value between 6 and 6.7 (IC50 between 1 μM and 200 nM)) | A (a pKi value≥10 (Ki≤0.1 nM)) | A (a value of 3 or above) |  |  |  |  |  |  |
| C=CC(=O)N1CC[C@H]1COc1cc(-c2ccc(O)cc2)cc2[nH]ncc12 [Compound 12-25] |  |  |  | B (a value of 2.3 to 3) |  |  | > 100 nM | 200 to 1000 nM | 0.1 to 1 nM |  |
| C=CC(=O)N1CCC[C@H](C(=O)Nc2cc(-c3ccc(O)cc3)cc3[nH]ncc23)C1 [Compound 12-56] |  |  |  | A (a value of 3 or above) |  |  | > 100 nM | 31.6 to 200 nM | < 0.1 nM |  |
| C=CC(=O)N1CC[C@H](COc2nc(-c3ccc(O)c(Cl)c3)cc3[nH]ncc23)C1 [Compound 2-14] | E (a pKi value of 7 or below (Ki of 100 nM or above)) |  | A (a pKi value≥10 (Ki≤0.1 nM)) |  | A (a pIC50 value≥7.5 (IC50≤32 nM)) | A (a value of 3 or above) |  |  |  |  |
| C=CC(=O)N1CC[C@H](COc2cc(-c3ccc(O)c(Cl)c3)nc3[nH]ncc23)C1 [Compound 2-16] | E (a pKi value of 7 or below (Ki of 100 nM or above)) |  | B (a pKi value between 9 and 10 (Ki between 1 nM and 0.1 nM)) |  | C (a pIC50 value between 6 and 6.7 (IC50 between 1 μM and 200 nM)) | A (a value of 3 or above) |  |  |  |  |
| CN(C)C/C=C/C(=O)N1CCC(COc2nc(-c3ccc(O)c(Cl)c3)cc3[nH]ncc23)CC1 [Compound 14-10] | D (a pKi value between 7 and 8 (Ki between 100 nM and 10 nM)) | C (a pIC50 value between 6 and 6.7 (IC50 between 1 μM and 200 nM)) | B (a pKi value between 9 and 10 (Ki between 1 nM and 0.1 nM)) | C (a value of 1.8 to 2.3) |  |  |  |  |  |  |
| CN(C)CC=CC(=O)N1C2CCC1CC(Oc1cc(-c3ccc(O)c(F)c3)cc3[nH]ncc13)C2 (centres unmarked) [Compound 10-5] | D (a pKi value between 7 and 8 (Ki between 100 nM and 10 nM)) | B (a pIC50 value between 6.7 (included) and 7.5 (IC50 between 200 nM and 32 nM)) | B (a pKi value between 9 and 10 (Ki between 1 nM and 0.1 nM)) | C (a value of 1.8 to 2.3) |  |  |  |  |  |  |
| C=CC(=O)N1CCO[C@H](C(=O)Nc2cc(-c3ccc(O)cc3)cc3[nH]ncc23)C1 [Compound 11-1] | E (a pKi value of 7 or below (Ki of 100 nM or above)) | A (a pIC50 value≥7.5 (IC50≤32 nM)) | B (a pKi value between 9 and 10 (Ki between 1 nM and 0.1 nM)) | A (a value of 3 or above) |  |  |  |  |  |  |
| CN(C)C/C=C/C(=O)N1CC[C@H](Oc2nc(-c3ccc(O)c(F)c3)cc3[nH]ncc23)C1 [Compound 1-28] |  |  |  |  |  | B (a value of 2.3 to 3) | > 100 nM |  | 0.1 to 1 nM | 200 to 1000 nM |
| C=CC(=O)N1CC(COc2cc(-c3ccc(O)cc3)cc3[nH]nc(Cl)c23)C1 [Compound 18-14] | E (a pKi value of 7 or below (Ki of 100 nM or above)) | B (a pIC50 value between 6.7 (included) and 7.5 (IC50 between 200 nM and 32 nM)) | B (a pKi value between 9 and 10 (Ki between 1 nM and 0.1 nM)) | A (a value of 3 or above) |  |  |  |  |  |  |
| CN(C)C/C=C/C(=O)N1CC(COc2cc(-c3ccc(O)c(F)c3F)cc3[nH]ncc23)C1 [Compound 3-82] |  |  |  |  |  | B (a value of 2.3 to 3) | 10 to 100 nM |  | < 0.1 nM | < 31.6 nM |
| C=CC(=O)N1C[C@H](C(=O)Nc2cc(-c3ccc(O)cc3)cc3[nH]ncc23)OC(C)(C)C1 [Compound 12-62] |  |  |  | A (a value of 3 or above) |  |  | > 100 nM | 31.6 to 200 nM | < 0.1 nM |  |
| C=CC(=O)N1C2CCC1CC(Oc1nc(-c3ccc(O)c(Cl)c3)cc3[nH]ncc13)C2 (centres unmarked) [Compound 9-7] | E (a pKi value of 7 or below (Ki of 100 nM or above)) | B (a pIC50 value between 6.7 (included) and 7.5 (IC50 between 200 nM and 32 nM)) | A (a pKi value≥10 (Ki≤0.1 nM)) | A (a value of 3 or above) |  |  |  |  |  |  |
| CN(C)CC=CC(=O)N1C2CCC1CC(Oc1cc(-c3ccc(O)c(Cl)c3)cc3[nH]ncc13)C2 (centres unmarked) [Compound 9-3] | E (a pKi value of 7 or below (Ki of 100 nM or above)) | C (a pIC50 value between 6 and 6.7 (IC50 between 1 μM and 200 nM)) | B (a pKi value between 9 and 10 (Ki between 1 nM and 0.1 nM)) | C (a value of 1.8 to 2.3) |  |  |  |  |  |  |
| C=CC(=O)N1CCC(C)(Oc2cc(-c3ccc(O)c(Cl)c3)cc3[nH]ncc23)CC1 [Compound 6-5] | E (a pKi value of 7 or below (Ki of 100 nM or above)) | A (a pIC50 value≥7.5 (IC50≤32 nM)) | B (a pKi value between 9 and 10 (Ki between 1 nM and 0.1 nM)) | A (a value of 3 or above) |  |  |  |  |  |  |
